The text below walks through data of PMC2914685 (Analytical biochemistry, 2010).

No end group written: not given here.

In test [1] the target is T1, Abl SH3 domain (Homo sapiens, UniProt P00519). The note with it: computationally predicted from the human proteome; ref [30]; [31] (Personal communication); cited from earlier work.
Test [2] deals with T1, Abl SH3 domain. Kind of test: Tetracycline repressor-based mammalian two-hybrid assay. The note with it: HEK 293 cells, 48 hours post-transfection, fluorescence microscopy, Figure 2. The format is cell-based.
For another test, the system named is Abl SH3 domain (SH3-His). Nature of the test: Abl SH3 domain Western blot-type detection. The test is classed as binding, human. The note with it: fluorescence under UV 365 nm, estimated, data not shown.
The next test has as its target SH3-His (human, UniProt P00519 61-121). Nature of the test: fluorescence polarisation.

T1 sequence (P00519 61-121 limits assumed): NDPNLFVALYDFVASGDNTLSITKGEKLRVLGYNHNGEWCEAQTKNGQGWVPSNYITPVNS
SH3-His, sequence (P00519 61-121): as the sequence (P00519 61-121 limits assumed) above

Take AAAMQKPSLP [BOT1]: at Abl SH3 domain [1], the “predicted binding to Abl SH3 domain” value is on record as “non-binding peptide”. Turning to APAFPPPSPP [TOP1], the “predicted binding to Abl SH3 domain” value at Abl SH3 domain [1] is “binding peptide”. In addition, the “interaction with Abl SH3 domain in vivo (AcGFP expression)” value at Abl SH3 domain [2] is listed as “positive interaction”. In the case of “MGAGAPAFPPPSPP@EF-(GFP)-His6 [TOP1-DOPA-GFP]”, the “lowest limit of detection of SH3-His” value in the test on Abl SH3 domain (SH3-His) is reported as “about 0.5 μg”. “TetR-BOT1: TetR with dimerization domain replaced with BOT1 (AAAMQKPSLP; also: insert only, fused into TetR protein)”: in the test with Abl SH3 domain [2], the “interaction with Abl SH3 domain in vivo (AcGFP expression)” value was “does not bind to TetR-SH3”. In the case of APAFPPPSPP (also: FITC label, position not given here) [TOP1-FITC], the Kd with SH3-His was 16 ± 1 µM.
